Measurements taken from patent US20060035867A1, “Methods of treating cancer and the pain associated therewith using endothelin antagonists” (priority 2000, published 2006).

Columns and labels:
[1] = tested on: prostate specific antigen (PSA); experiment: Prostate Specific Antigen Level Assay (Chiron ACS: Centaur PSA2, serum of treated subjects); assay type: in vivo, human; conditions: hormone refractory prostate cancer subjects; 2.5 mg or 10 mg ABT-627 vs placebo; AUC in FIG. 2
Experimental: (§1) Studies were performed on male subjects with asymptomatic hormone refractory prostate cancer with rising PSA levels and on male subjects with symptomatic hormone refractory prostate cancer with rising PSA levels and pain. Subjects in the phase II studies had castrate levels of testosterone, either due to pharmacologic intervention, via leuprolide (Lupron®) or goserelin (Zoladex®), or via surgical castration. Subjects received ABT-627 or placebo. The following tests were conducted:
(§2) A number of recognized or putative biochemical markers of disease progression have been used to monitor treatment of individuals with prostate cancer. Among these markers are serum Prostate Specific Antigen (PSA), serum acid Phosphatase, Interleukin-6, and Chromagranin-A. As currently accepted, favorable treatment is marked by a decrease or slower rate of increase for PSA, acid phosphatase, and Interleukin-6, while a favorable response is marked by an increase in Chromagranin-A. […]
The effect of ABT-627 administeration on prostate specific antigen (PSA) levels in human subject serum samples was determined using the procedure described in the Chiron Diagnostics ACS: Centaur PSA2 Assay. […]
Briefly, a subject population was treated with a placebo or 2.5 mg or 10 mg of ABT-627. […] A direct relationship exists between the amount of PSA present in the patient sample and the RLU's (relative light units) detected.

Acid Phosphatase (ACP) = experiment: Acid Phosphatase Levels (Sigma Diagnostics ACP Procedure No. 435, serum of treated subjects); assay type: in vivo, human; conditions: hormone refractory prostate cancer subjects, ABT-627 vs placebo, AUC in FIG. 7 (10 mg)
Experimental: as §1
A number of recognized or putative biochemical markers of disease progression have been used to monitor treatment of individuals with prostate cancer. […]
The effect of ABT-627 administeration on Acid Phosphatase levels in human subject serum samples was determined at Quintiles Laboratories using the chemical test described in Sigma Diagnostics Acid Phosphatase (ACP) Procedure No. 435. […] The alpha-naphthol immediately reacts with fast red TR salt to produce a yellow chromophore with an absorbance maximum at 405 nm. The rate of increase in absorbance at 405 nm is directly proportional to ACP activity in the sample. ACP activity was determined in the presence and absence of L-tartrate, the difference being attributed to prostatic acid phosphatase activity. […]

Chromagranin-A = Chromagranin-A Levels (two site chemiluminescence assay, serum of treated subjects); assay type: in vivo, human; conditions: hormone refractory prostate cancer subjects, 2.5 mg/day of ABT-627, AUC in FIG. 8
Experimental: as §1, §2
The effect of ABT-627 adminstration on Chromagranin-A levels in human serum samples was determined by proprietary assay conducted at the Nichols Institute. […] The bound, acridinium-labeled material produces light that is detected in a luminometer after addition of triggering agents. […]

Interleukin-6 = Interleukin-6 Levels (sandwich immunoassay, serum of treated subjects); assay type: in vivo, human; conditions: hormone refractory prostate cancer subjects, 2.5 mg or 10 mg ABT-627 vs placebo, AUC FIG. 1
Experimental: as §1, §2
The effect of ABT-627 adminstration on Interleukin-6 levels in human serum samples was determined at Quintiles Laboratories using a sandwich immunoassay. […] After incubation, the wells were washed, and the bound enzymatic activity was measured using a chromogenic substrate. […]

[2] = tested on: male subjects with hormone refractory prostate cancer; experiment: Bone scan (Tc-99m phosphonate, bone scan index); assay type: in vivo, human; conditions: 10 mg ABT-627 versus placebo, FIG. 6
Experimental: as §1
Bone scans were performed with an NDA approved, Tc-99m phosphonate type radiopharmaceutical. […] Each site was evaluated against a confidence score of 1 to 5, where 1 is negative, 2 is probably negative, 3 is equivocal, 4 is probably positive, and 5 is definitely positive. […] In addition, in a blinded study, a reference nuclear medicine physician interpreted the bone scans quantitatively as follows: the percent of involved bone was estimated for each individual bone, and the individual bone involvement was summed to calculate a global percent bone scan index (BSI). […]
Bone scans were conducted on each subject on day one of the study, and on the final day of the study, and the changes from baseline in bone scan index scores were analysed by mean change and mean percent change, adjusting for baseline characteristics as co-variates using SAS version XXX software.

[3] = tested on: male subjects with symptomatic hormone refractory prostate cancer with rising PSA levels and pain; experiment: Visual Analog Scale (VAS) pain assessment; assay type: in vivo, human; conditions: 2.5 mg or 10 mg ABT-627 vs placebo, independent of the effects of morphine, AUC in FIG. 3
Experimental: Studies were performed on male subjects with asymptomatic hormone refractory prostate cancer with rising PSA levels and on male subjects with symptomatic hormone refractory prostate cancer with rising PSA levels and pain. Subjects in the phase II studies had castrate levels of testosterone, either due to pharmacologic intervention, via leuprolide (Lupron®) or goserelin (Zoladex®), or via surgical castration. Subjects received ABT-627 or placebo. The following tests were conducted: […]
During the course of the study, pain asessments were done daily, at bedtime, by the subject. […] The log also contained a table on which was recorded all daily pain medication consumed by the patient. […] Clinical personnel who received the logs measured the score by measuring the distance (in mm) from the “no pain” end mark to the point where the subject's line crossed the VAS line. […]
The weekly VAS scores were calculated excluding the lowest and highest score for each week and averaging the remaining five scores. […]
Weekly VAS scores are examined using a longitudinal analysis method to explore trends over time. The duration of the response, defined as the time from baseline to the last weekly assessment for which the responder definition was satisfied, was analyzed using the Kaplan-Meier methodology and logrank test.

[4] = tested on: bone alkaline phosphatase (BAP); experiment: Bone Alkaline Phosphatase levels (Alkphase-B assay); assay type: in vivo, human; conditions: hormone refractory prostate cancer subjects; 10 mg ABT-627 vs placebo; AUC in FIG. 5
Experimental: as §1
(§3) Markers of osteoblastic activity were assessed using urine samples. Bone markers include bone alkaline phosphatase (BAP), deoxypridinoline, and N-telopeptide of Type I collagen. Blood samples were collected prior to dosing on Day 1, Day 42, Day 84, Day 168, and every 28 days after Day 168, with a final collection on the last day of the study.
Bone Alkaline Phosphatase levels were determined using the bone-specific Alkphase-B® assay published by Metra Biosystems (Mountain View, Calif.).

[5] = tested on: Crosslinked N-telopeptide (ICTP) of type I collagen; experiment: Crosslinked N-Telopeptide Levels (DiaSorin ICTP radioimmunoassay); assay type: in vivo; conditions: hormone refractory prostate cancer subjects; 10 mg ABT-627 vs placebo; human serum; AUC in FIG. 4
Experimental: as §1, §3
Cross-linked N-telopeptide levels were determined using the DiaSorin (Stillwater, Minn.) assay for the quantitative determination of carboxyterminal cross-linked telopeptide of type I collagen (ICTP) in human serum by equilibrium radioimmunoassay (RIA). Briefly, samples were incubated with the ^125I ICTP tracer and ICTP primary antibody for 2 hours at 37° C. Following the 2 hour incubation, a pre-precipitated second antibody complex was added to separate the bound from free tracer. […] The bound tracer in the pellet was counted with a gamma counter. […]

CCCCN(CCCC)C(=O)CN1C[C@H](c2ccc3c(c2)OCO3)[C@@H](C(=O)O)[C@@H]1c1ccc(OC)cc1 [ABT-627]
rate of increase of PSA in the serum samples [1]: decreases
average change from baseline for acid phosphatase (Acid Phosphatase (ACP)): decreased
rate of increase for acid phosphatase (Acid Phosphatase (ACP)): decreased
average change from baseline for Chromagranin-A (Chromagranin-A): higher
average change in baseline for Interleukin-6 (Interleukin-6): lower
proportion of total skeletal involvement (bone scan) [2]: decrease in the proportion of total skeketal involvement
VAS scores (pain) [3]: decrease in pain
BAP levels [4]: decreased
Crosslinked N-telopeptide levels [5]: decreased
